Reference: US8765786B2, “1-substituted indazole derivative” (Dainippon Sumitomo Pharma Co., Ltd., priority 2012, dated 2014)

Biological target: T1, human α7 nAChR (Homo sapiens, UniProt P36544)
T1 construct: expressed in transfected cells; host or cells: GH4C1 cells derived from rat pituitary (ATCC CCL-82.2)
Experiment: Evaluation of PAM activity with human α7 nACh receptor stably expressing cells (aequorin luminescence, FDSS7000)
Format: cell-based
Settings: for α7PAM (%) @ 10 μmol/L / activity at 10 µM: test compound 10 μmol/L, ACh added at EC20, ratio of RLU (Max-Min) of test wells to control wells; for activity at 10 µM: read-out: α7PAM (%) @ 10 μmol/L
Excerpt: Human α7 nAChR stably expressing cells were generated and cultured. In detail, GH4C1 cells derived from rat pituitary (cat#CCL-82.2, ATCC, USA) were used as a host cell. PcDNA3.1Zeo vector containing a nucleotide sequence encoding a protein GenBank BAC81731 and pcDNA3.1 vector containing human α7 nAChR gene (cat#V790-20, invitrogen, Carlsbad, Calif., USA) were transfected to the cells to give aequorins and human α7 nAChR stably expressing cells respectively. The aequorins and human α7 nAChR stably expressing cells were screened with Zeocin (cat#R25001, invitrogen, Carlsbad, Calif., USA) and Geneticin (cat #10131-027, invitrogen, Carlsbad, Calif., USA) respectively.
The cells were cultured in F-10 Nutrient Mixture (Ham) medium (cat #11550-043, invitrogen, Carlsbad, Calif., USA) containing 2.5% fetal bovine serum (cat #2917354, ICN Biomedicals, Inc, USA), 15% inactivated horse serum (cat #26050-088, invitrogen, Carlsbad, Calif., USA), 1 μg/mL Geneticin, and 5 μg/mL Puromycin (cat #14861-84, invitrogen, Carlsbad, Calif., USA), in a Collagen Type 1-coated dish (cat #4030-010, iwaki, Tokyo, Japan). During the culture, the medium was replaced with fresh medium in every 2 to 3 days, and the cells were treated with TrypLE Express (cat #45604-021, invitrogen, Carlsbad, Calif., USA) to collect them in every 7 days. Thus, the cells were subcultured.
7 Days after subculturing, the cells were treated with TrypLE Express to collect them when they were about 80% confluent. The cells were suspended in a reaction medium containing Hanks (cat #14065-056, invitrogen, Carlsbad, Calif., USA)/20 mmol/L Hepes (cat #15630-080, invitrogen, Carlsbad, Calif., USA), Buffer (pH 7.4), F-10 Nutrient Mixture (Ham), and 0.1 mg/mL Geneticin, and the suspension was seeded in a 384-well plate (cat #781090, Greiner, Germany) at 20000 cells/25 μL per well.
On the next day after seeding, Viviren (cat#E649X, Promega, Madison, Wis., USA) was added to the medium so that the final concentration could be 4 μmol/L (15 μL/well). The plates were centrifuged and then placed in the dark for 4 hours at room temperature.
Each of the test compounds was dissolved in DMSO to prepare each test sample at a concentration of 1000-fold the final concentration. To the solution was added Hanks/20 mM HEPES/0.2% BSA (cat#A3803, Sigma, St. Louis, Mo., USA), and the concentration was adjusted to 6-fold the final concentration.
FDSS7000 (Hamamatsu Photonics) was used to detect the luminescence signal evoked by α7 nAChR stimulation. The cells and a luminescent substrate were put on a plate, and the test sample was added thereto. […] After the addition of ACh, the luminescence signal (the central wavelength: 465 nm) was measured for 138 seconds to calculate RLU (Max-Min). The ratio of the RLU (Max-Min) of the test-compound-containing wells to that of the control wells was defined as PAM activity.

T1 sequence (P36544 23-502): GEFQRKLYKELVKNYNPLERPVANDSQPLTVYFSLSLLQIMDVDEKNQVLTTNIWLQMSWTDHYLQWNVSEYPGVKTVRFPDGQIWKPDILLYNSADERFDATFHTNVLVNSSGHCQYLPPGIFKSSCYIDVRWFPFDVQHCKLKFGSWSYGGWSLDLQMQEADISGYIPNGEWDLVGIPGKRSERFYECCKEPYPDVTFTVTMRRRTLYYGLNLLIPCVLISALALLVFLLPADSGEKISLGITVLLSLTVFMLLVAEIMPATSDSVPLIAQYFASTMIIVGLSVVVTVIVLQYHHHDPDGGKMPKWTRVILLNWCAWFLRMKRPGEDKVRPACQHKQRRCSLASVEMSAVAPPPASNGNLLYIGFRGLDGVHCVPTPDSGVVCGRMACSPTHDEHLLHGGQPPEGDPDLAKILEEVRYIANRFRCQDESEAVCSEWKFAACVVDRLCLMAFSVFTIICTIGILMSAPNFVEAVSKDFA

`CC(C)Oc1cccc2c1cnn2C1CCN(C(=O)NC2CCC(F)(F)CC2)CC1` [Example 183] was tested, and the “α7PAM (%) @ 10 μmol/L” value was 342%.
In the case of `COCC1CCC(NC(=O)N2CCC(n3ncc4cc(Br)ccc43)CC2)CC1` (centres unmarked) [Example 238], the “α7PAM (%) @ 10 μmol/L” value is reported as 1031%.
For `COCC1CCC(NC(=O)N2CCC(n3ncc4cc(C5CC5)ccc43)CC2)CC1` (centres unmarked) [Example 221], the “α7PAM (%) @ 10 μmol/L” value was 1942%.
With `COCC1CCC(NC(=O)N2CCC(n3ncc4cc(Cl)ccc43)CC2)CC1` (centres unmarked) [Example 237] the “α7PAM (%) @ 10 μmol/L” value was 832%.
For `CO[C@H]1CC[C@H](NC(=O)N2CCC(n3ncc4c(F)c(C)ccc43)CC2)CC1` [Example 223], the “α7PAM (%) @ 10 μmol/L” value was 257%.
With `Cc1c(C2CC2)ccc2c1cnn2C1CCN(C(=O)NC2CCC(F)(F)CC2)CC1` [Example 276] the “α7PAM (%) @ 10 μmol/L” value was 1351%.
In the case of `CCOc1c(C)ccc2c1cnn2C1CCN(C(=O)NC2CCOCC2)CC1` [Example 273], the “α7PAM (%) @ 10 μmol/L” value is reported as 341%.
In the case of `COc1ccc2c(c1)c(C)nn2C1CCN(C(=O)NC2CCC(F)(F)CC2)CC1` [Example 243], the “α7PAM (%) @ 10 μmol/L” value is reported as 842%.
For `[2H]C([2H])([2H])O[C@H]1CC[C@H](NC(=O)N2CCC(n3ncc4cc(OC(F)F)ccc43)CC2)CC1` [Example 326], the “α7PAM (%) @ 10 μmol/L” value was 1251%.
For `O=C(NC1CCC(F)(F)CC1)N1CCC(n2ncc3cc(F)ccc32)CC1` [Example 28, N-(4,4-difluorocyclohexyl)-4-(5-fluoro-1H-indazol-1-yl)piperidine-1-carboxamide], the activity at 10 µM was 340%.
For `CCOc1ccc2c(cnn2C2CCN(C(=O)C3CCC(F)(F)CC3)CC2)c1` [Example 3, (4,4-difluorocyclohexyl)(4-(5-ethoxy-1H-indazol-1-yl)piperidin-1-yl)methanone], the activity at 10 µM was 512%.
`CCOc1ccc2c(cnn2C2CCN(C(=O)c3ccc(C(F)(F)F)cn3)CC2)c1` [Example 132] was tested, and the “α7PAM (%) @ 10 μmol/L” value was 361%.
For `CCc1ccc2c(c1)c(OC(C)C)nn2C1CCN(C(=O)NC2CCCC2)CC1` [Example 58], the “α7PAM (%) @ 10 μmol/L” value was 577%.
With `O=C(Nc1ccc(Cl)nn1)N1CCC(n2ncc3cc(C4CC4)ccc32)CC1` [Example 204] the “α7PAM (%) @ 10 μmol/L” value was 193%.
For `COC(C)c1c(C)ccc2c1cnn2C1CCN(C(=O)NC2CCC(F)(F)CC2)CC1` (centres unmarked) [Example 232], the “α7PAM (%) @ 10 μmol/L” value was 860%.
`COC(C)Cc1ccc2c(cnn2C2CCN(C(=O)N[C@H]3CC[C@H](OC)CC3)CC2)c1` (some centres unmarked) [Example 247] was tested, and the “α7PAM (%) @ 10 μmol/L” value was 353%.
In the case of `COc1ccc2c(cnn2C2CCN(C(=O)NC3CCC(F)(F)CC3)CC2)c1OC` [Example 305], the “α7PAM (%) @ 10 μmol/L” value is reported as 729%.
`CCc1cccc2c1cnn2C1CCN(C(=O)N[C@H]2CC[C@H](OC(F)F)CC2)CC1` [Example 159] was tested, and the “α7PAM (%) @ 10 μmol/L” value was 187%.
`COc1nn(C2CCN(C(=O)NC3CCC(F)(F)CC3)CC2)c2ccc(C)cc12` [Example 270] was tested, and the “α7PAM (%) @ 10 μmol/L” value was 364%.
With `COC1CCC(NC(=O)N2CCC(n3ncc4cc(C)ccc43)CC2)CC1` (centres unmarked) [Example 91] the “α7PAM (%) @ 10 μmol/L” value was 217%.
For `O=C(NC1CCC(F)(F)CC1)N1CCC(n2ncc3c(C(F)(F)F)cccc32)CC1` [Example 169], the “α7PAM (%) @ 10 μmol/L” value was 359%.
In the case of `COc1ccc2c(c1)c(C1=CCOCC1)nn2C1CCN(C(=O)NC2CCC(F)(F)CC2)CC1` [Example 259], the “α7PAM (%) @ 10 μmol/L” value is reported as 309%.
`O=C(NCc1ccccc1)N1CCC(n2ncc3cc(C4CC4)ccc32)CC1` [Example 194] was tested, and the “α7PAM (%) @ 10 μmol/L” value was 278%.
`CCOc1ccc2c(cnn2C2CCN(C(=O)c3ccc(F)cc3)CC2)c1` [Example 112] was tested, and the “α7PAM (%) @ 10 μmol/L” value was 265%.
For `O=C(NC1CCC(F)(F)CC1)N1CCC(n2ncc3cc(-c4cccnc4)ccc32)CC1` [Example 196], the “α7PAM (%) @ 10 μmol/L” value was 229%.
For `COC1CCC(NC(=O)N2CCC(n3ncc4c(C)cccc43)CC2)CC1` (centres unmarked) [Example 95], the “α7PAM (%) @ 10 μmol/L” value was 133%.
With `CCc1cnc2c(cnn2C2CCN(C(=O)NC3CCC(F)(F)CC3)CC2)c1` [Example 99] the “α7PAM (%) @ 10 μmol/L” value was 755%.
In the case of `COC1CCC(NC(=O)N2CCC(n3ncc4c(C)cccc43)CC2)CC1` (centres unmarked) [Example 94], the “α7PAM (%) @ 10 μmol/L” value is reported as 154%.
`CCOc1nn(C2CCN(C(=O)NC3CCCC3)CC2)c2ccc(CC)cc12` [Example 56] was tested, and the “α7PAM (%) @ 10 μmol/L” value was 676%.
In the case of `[2H]C([2H])([2H])Oc1ccc2c(cnn2C2CCN(C(=O)NC3CCC(F)(F)CC3)CC2)c1` [Example 319], the “α7PAM (%) @ 10 μmol/L” value is reported as 1337%.
For `COc1ccc2c(cnn2C2CCN(C(=O)NC3CCC(F)(F)CC3)CC2)c1C` [Example 278], the “α7PAM (%) @ 10 μmol/L” value was 861%.
For `[2H]C([2H])([2H])O[C@H]1CC[C@H](NC(=O)N2CCC(n3ncc4cc(C([2H])([2H])[2H])ccc43)CC2)CC1` [Example 308], the “α7PAM (%) @ 10 μmol/L” value was 1021%.
With `O=C(NC1CCOCC1)N1CCC(n2ncc3cc(C4CC4)ccc32)CC1` [Example 75] the “α7PAM (%) @ 10 μmol/L” value was 621%.
For `Cc1ccc2c(cnn2C2CCN(C(=O)NC3CCC(OCC(F)(F)F)CC3)CC2)c1` (centres unmarked) [Example 83], the “α7PAM (%) @ 10 μmol/L” value was 420%.
With `CCOc1nn(C2CCN(C(=O)NC3CCOCC3)CC2)c2ccc(C(F)(F)F)cc12` [Example 267] the “α7PAM (%) @ 10 μmol/L” value was 292%.
With `COC1CC1c1ccc2c(cnn2C2CCN(C(=O)NC3CCC(F)(F)CC3)CC2)c1` (centres unmarked) [Example 248] the “α7PAM (%) @ 10 μmol/L” value was 851%.
`COCc1nn(C2CCN(C(=O)NC3CCC(F)(F)CC3)CC2)c2ccc(C)cc12` [Example 36, N-(4,4-difluorocyclohexyl)-4-(3-(methoxymethyl)-5-methyl-1H-indazol-1-yl)piperidine-1-carboxamide] gave an activity at 10 µM of 897%.
With `O=C(NC1CCC(F)(F)CC1)N1CCC(n2ncc3cc(N4CCCC4)ccc32)CC1` [Example 224] the “α7PAM (%) @ 10 μmol/L” value was 286%.
With `Cc1ccc2c(cnn2C2CCN(C(=O)NC3CCCC(F)(F)C3)CC2)c1` (centres unmarked) [Example 82] the “α7PAM (%) @ 10 μmol/L” value was 888%.
`CCc1c(OC)ccc2c1cnn2C1CCN(C(=O)NC2CCOCC2)CC1` [Example 289] was tested, and the “α7PAM (%) @ 10 μmol/L” value was 255%.
`O=C(NC1CCC1)N1CCC(n2ncc3cc(C4CC4)ccc32)CC1` [Example 185] was tested, and the “α7PAM (%) @ 10 μmol/L” value was 494%.
Compound `Cc1ccc2c(cnn2C2CCN(C(=O)N[C@@H]3CCCC3(F)F)CC2)c1` [Example 81, (R) —N-(2,2-difluorocyclopentyl)-4-(5-methyl-1H-indazol-1-yl)piperidine-1-carboxamide] has an activity at 10 µM of 819%.
Work on `CO[C@H]1CC[C@H](NC(=O)N2CCC(n3ncc4cc(OC5CC5)ccc43)CC2)CC1` [Example 230, 4-[5-(cyclopropoxy)-1H-indazol-1-yl]-N-(trans-4-methoxycyclohexyl)piperidine-1-carboxamide] yielded an activity at 10 µM of 621%.
`Cc1ccc2c(cnn2C2CCN(C(=O)NC3CCC(F)(F)CC3)CC2)c1` [Example 13, N-(4,4-difluorocyclohexyl)-4-(5-methyl-1H-indazol-1-yl)piperidine-1-carboxamide] was tested, and the “PAM activity for α7 nAChR” value (result in words, ratio of RLU (Max-Min) to control wells, ACh EC20) was “stronger PAM activity than others”.
In the case of `O=C(NC1CCC(F)(F)CC1)N1CCC(n2ncc3c(C4CC4)cccc32)CC1` [Example 161], the “α7PAM (%) @ 10 μmol/L” value is reported as 567%.
`COC1CCC(C(=O)N2CCC(n3ncc4cc(C5CC5)ccc43)CC2)CC1` (centres unmarked) [Example 141] was tested, and the “α7PAM (%) @ 10 μmol/L” value was 448%.
In the case of `O=C(NC1CCC(F)(F)CC1)N1CCC(n2ncc3cc(OC(F)F)ccc32)CC1` [Example 290], the “α7PAM (%) @ 10 μmol/L” value is reported as 1173%.
For `COC1CCC(NC(=O)N2CCC(n3nc(C)c4cc(C)ccc43)CC2)CC1` (centres unmarked) [Example 89], the “α7PAM (%) @ 10 μmol/L” value was 1506%.
`COCc1c(C)ccc2c1cnn2C1CCN(C(=O)N[C@H]2CC[C@H](OC)CC2)CC1` [Example 214] was tested, and the “α7PAM (%) @ 10 μmol/L” value was 207%.
`[2H]C([2H])([2H])O[C@H]1CC[C@H](NC(=O)N2CCC(n3ncc4c(CC)cccc43)CC2)CC1` [Example 307] was tested, and the “α7PAM (%) @ 10 μmol/L” value was 464%.
